In publication PMC4729491, “The Cellular Thioredoxin-1/Thioredoxin Reductase-1 Driven Oxidoreduction Represents a Chemotherapeutic Target for HIV-1 Entry Inhibition” (PLoS ONE, 2016):
“Also recorded” adds a separate entry of the source.

Legend:
PHA-stimulated PBMCs = assay: Toxicity in PHA-stimulated PBMCs (trypan blue cell counting); assay type: cell-based, human; conditions: proliferation of seven-day drug-exposed PHA-stimulated PBMCs; mean ± SD; read-out: IC50 PBMC
Method: A similar experiment was performed to study the toxicity of the compounds in fresh, PHA-stimulated, PBMCs. Mock-infected PBMCs (2 x 10^5 cells) were exposed to a serial dilution of compound, in a total volume of 200 μl. Cells were passaged after 4 days. Cell survival and proliferation was assessed at day 7 using trypan blue-based cell counting with the Countess Automated Cell Counter (Invitrogen, Ghent, Belgium). The IC50 was defined as the concentration of the compound that inhibited cell proliferation by 50%.

HIV-1(IIIB) [1] = assay: Antiviral activity in PHA-stimulated PBMCs (p24 ELISA), HIV-1(IIIB); assay type: cell-based; conditions: PHA-stimulated PBMCs; mean ± SD; read-out: EC50 HIV-1 (IIIB)
Method: (§1) To test the antiviral activity in fresh, PHA-stimulated PBMCs, an experiment was performed as previously described. Briefly, the cells were preincubated with HIV-1(IIIB), HIV-1(BaL) or HIV-1(HE) for 1 h at 37°C, using a viral load of 1000 x CCID50 per ml. Then, cell suspensions containing virus and 2 x 10^5 PBMCs were seeded in a 96-well microtiter plate and a serial dilution of compound was added, in a total volume of 200 μl. After 4 days, the cells were passaged and fresh culture medium, containing IL-2 and compound, was added. Three days later, cellular supernatants were harvested and viral replication in the presence of the compounds was quantified using a p24 enzyme-linked immunosorbent assay (ELISA) (Perkin Elmer, Brussels, Belgium). The half maximal effective concentration (EC50) was defined as the compound concentration that is required to block viral replication by 50%.

TrxR1 = target: T1, TrxR1 (Homo sapiens, UniProt Q16881); assay: SPR binding to immobilized TrxR1; conditions: 10, 50 and 250 μM
T1 construct: purchased IMCO Corporation (Stockholm, Sweden) or Sino Biological Inc (Zoersel, Belgium)
T1 sequence (Q16881 1-499 isoform Q16881-5): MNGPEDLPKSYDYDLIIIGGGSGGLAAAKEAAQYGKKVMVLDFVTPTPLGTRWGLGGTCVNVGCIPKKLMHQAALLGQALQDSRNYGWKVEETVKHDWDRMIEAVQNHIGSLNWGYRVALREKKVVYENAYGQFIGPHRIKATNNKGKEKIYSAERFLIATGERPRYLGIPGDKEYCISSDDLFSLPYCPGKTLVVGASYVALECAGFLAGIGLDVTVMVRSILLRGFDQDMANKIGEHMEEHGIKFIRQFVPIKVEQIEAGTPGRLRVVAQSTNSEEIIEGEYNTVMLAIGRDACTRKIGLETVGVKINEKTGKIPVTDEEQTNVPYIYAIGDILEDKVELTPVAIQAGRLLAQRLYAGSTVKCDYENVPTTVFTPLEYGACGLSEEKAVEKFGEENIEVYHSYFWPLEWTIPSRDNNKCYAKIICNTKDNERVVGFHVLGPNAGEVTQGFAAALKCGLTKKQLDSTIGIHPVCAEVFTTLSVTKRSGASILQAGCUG
Method: (§2) SPR analysis was performed to evaluate binding of TE-2 to immobilized recombinant TrxR1, PDI, gp120, gp41 and sCD4. Therefore, these ligands were immobilized on a CM5 sensor chip (GE Healthcare, Uppsala, Sweden) using standard amine coupling in the presence of 10 mM sodium acetate, pH 5. A high ligand-density chip was created, with ligand densities of 6759, 5004, 4119, 2900 and 5569 RU, respectively. A reference flow cell was used to control for non-specific binding and refractive index changes. All interactions were studied at 25°C on a Biacore T200 instrument (GE Healthcare, Uppsala, Sweden) in HBS-P (10 mM HEPES, 150 mM NaCl and 0.05% surfactant P20; pH 7.4) supplemented with 10 mM CaCl2 and 5% DMSO. TE-2 was tested at the concentrations 10, 50 and 250 μM. Samples were injected during 2 minutes at a flow rate of 30 μl/min, followed by a dissociation phase of 2 minutes. Each injection was followed by a regeneration step with 50 mM NaOH (injected during 10 seconds at a flow rate of 100 μl/min).

PDI = PDI (Homo sapiens, UniProt P07237); assay: SPR binding to immobilized PDI; conditions: 10, 50 and 250 μM
Method: as §2

HIV-1 = assay: Infectivity (TZM-bl) of virus particles produced by ACH-2 cells in presence of compound; assay type: cell-based; conditions: ACH-2 cultures exposed to compound 3 days; supernatant 1:100 titrated on TZM-bl
Method: To measure the infectivity of particles produced in the presence of the compounds, washed persistently HIV-1-infected ACH-2 cells (1 x 10^6 cells/ml) were cultured with 100 nM PMA in the presence of the indicated concentration of compounds. After 3 days, the p24 content of the clarified supernatant (see virus expression) was measured. The cell supernatant was then used for an infectivity test (see infectivity assay) without the further addition of any compound to the cultures. The final dilution of the ACH-2 supernatant in the infectivity test was 1:100. A control experiment was performed, in which virus particles produced without the addition of compound, were used for the infectivity test. Additionally, the same amount of compound that could have been carried over with the virus containing supernatant in the original experiment was added to the infectivity test (final concentration: 1/100 of the indicated amount in the viral growth culture).

HIV-1(BaL) = assay: Antiviral activity in PHA-stimulated PBMCs (p24 ELISA), HIV-1(BaL); assay type: cell-based; conditions: PHA-stimulated PBMCs; mean ± SD; read-out: EC50 HIV-1 (BAL)
Method: as §1

HIV-1(IIIB) [2] = assay type: cell-based; conditions: MT-4 cells, p24 ELISA at 31 h; TE-2 at 50 μM
Method: Two time-of-drug-addition (TOA) experiments were performed and adopted from previously reported methods. Briefly, MT-4 cells were infected with HIV-1(IIIB) at a multiplicity of infection of 0.5. Following a 1 hour adsorption period, cells were washed, distributed in a 96-well tray at 100,000 cells per 200 μl per well and incubated at 37°C.
For the first experiment, test compounds were added to the infected cell cultures at different time points (i.e. 0, 1, 2, 3, 4, 5, 6, 7, 8, 9, 24, and 25 h) after the start of infection.
In a second experiment, the resolution of the assay was increased by evaluating early time points in more detail. Therefore, the test compounds were added to the infected cell cultures at the following time points after the start of infection: 0, 15, 30, 45, 100 and 180 min; and 24 as well as 25 h.
Product added at time points 0, 15, 30 and 45 min was present at the start of the viral infection and washed away after 1 hour. After washing, fresh product was added to maintain viral suppression throughout the remaining of the experiment.
HIV-1 production was determined at 31 h post infection via a p24 ELISA (Perkin Elmer, Brussels, Belgium).

PDI, sequence (P07237 18-508, species assumed): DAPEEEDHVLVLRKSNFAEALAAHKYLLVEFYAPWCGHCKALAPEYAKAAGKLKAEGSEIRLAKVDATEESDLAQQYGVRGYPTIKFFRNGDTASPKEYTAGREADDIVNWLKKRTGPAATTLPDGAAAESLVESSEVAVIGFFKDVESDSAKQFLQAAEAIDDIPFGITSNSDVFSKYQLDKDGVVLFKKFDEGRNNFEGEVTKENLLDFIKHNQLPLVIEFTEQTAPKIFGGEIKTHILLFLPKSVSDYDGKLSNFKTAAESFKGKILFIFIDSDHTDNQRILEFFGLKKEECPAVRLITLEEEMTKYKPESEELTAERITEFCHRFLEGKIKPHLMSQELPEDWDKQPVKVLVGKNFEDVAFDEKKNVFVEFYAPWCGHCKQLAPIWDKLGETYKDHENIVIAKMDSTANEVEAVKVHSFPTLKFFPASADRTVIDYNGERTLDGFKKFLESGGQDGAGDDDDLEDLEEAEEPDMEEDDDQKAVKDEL

With “6-(butyltelluro)-6-deoxy-β-cyclodextrin [TE-2]” the IC50 (PHA-stimulated PBMCs) was 54 ± 16 µM, the EC50 (HIV-1(IIIB) [1]) was 15 ± 7 µM and the “SPR binding to TrxR1” value (TrxR1) was “able to specifically bind TrxR1”. The “SPR binding to PDI” value (PDI) was “dose-dependently interact with PDI”, the “infectivity of virus particles produced in presence of compound (normalized for equal p24)” value (HIV-1) was “substantially less infectious virus particles” and the EC50 (HIV-1(BaL)) was ≥ 25 µM. The time-of-drug-addition profile (HIV-1(IIIB) [2]) was “mostly lost when added at t = 1 h after infection; also recorded: profile resembling that of the fusion inhibitor enfuvirtide (T-20)”.
